Drawing on ChEMBL document CHEMBL3526110, “Preclinical evaluation of the metabolism and disposition of RRx-001, a novel investigative anticancer agent” (Drug Metab Dispos, 2012), this text covers Drug metabolism and Retention_time for 2 compounds.

Series [1] in a line: Drug level assessed as compound formation from RRx-001 after 1 hr in presence of reduced GSH at pH 7.8 by LC-MS/MS method. The conditions noted are these: pH 7.8, 1 h. The format is physicochemical.
Series [2] has as its system Blood. The series is described as follows: Retention time in human whole blood in presence of 0.1% formic acid in acetonitrile at 20 uM by LC-MS/MS method. The class given is ADME, tissue-based.
Series [3] has as its system Blood. The series is described as follows: Drug metabolism in human whole blood treated with 20 uM RRx-001 assessed as compound formation by LC-MS/MS method. The format is ADME, tissue-based.
The test system of series [4] is Blood. The series is described as follows: Retention time in rat whole blood in presence of 0.1% formic acid in acetonitrile at 20 uM by LC-MS/MS method. The class given is ADME, tissue-based.
For series [5], the system named is Blood. The series is described as follows: Drug metabolism in rat whole blood treated with 20 uM RRx-001 assessed as compound formation by LC-MS/MS method. The class given is ADME, tissue-based.
The test system of series [6] is Blood. Kind of series: Retention time in human whole blood in presence of 0.1% formic acid in water at 20 uM by LC-MS/MS method. The class given is ADME, tissue-based.
The test system of series [7] is Blood. The series is described as follows: Retention time in rat whole blood in presence of 0.1% formic acid in water at 20 uM by LC-MS/MS method. The class given is ADME, tissue-based.

For `N[C@@H](CSCC(=O)N1CC([N+](=O)[O-])([N+](=O)[O-])C1)C(=O)O`, the Drug metabolism result in series [1], in series [3] and in series [5] was “metabolite_detected” in each case. For the same compound, the Retention_time was determined as 7.6 min in series [2], 7.6 min in series [4], 7.8 min in series [6] and 7.8 min in series [7].

In the case of `N[C@@H](CSCC(=O)N1CC([N+](=O)[O-])C1)C(=O)O`, the Retention_time in series [2] was determined as 4.3 min; in series [4], 4.3 min; in series [6] it was 4.7 min; in series [7] it was 4.7 min. The Drug metabolism entry in series [3] and in series [5] was “metabolite_detected” each time.
